From PubChem BioAssay AID256 (DTP/NCI, 2004)
Several values for one entry are separate records, joined by “and”; a condition that tells them apart may be missing. Equal values may be shown once. Toxic doses and inconclusive results are not listed. How the source made its calls: active means survival T/C of 150% or more; inactive means T/C below 125% in these data.

Test system: CD2F1 mice, L1210 leukemia ip, survival T/C
Assay: NCI In Vivo Anticancer Drug Screen. Data for tumor model L1210 Leukemia (intraperitoneal) in CD2F1 (CDF1) mice
Conditions: higher = longer survival
How it was run: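 Ratio T/C, where T is the treated-group value and C the vehicle-dosed control value, from mice implanted with a transplantable tumor.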

[1] = endpoint: mean survival time, dose: 75.0 mg/kg/injection, schedule: Q01DX001 (ip), vehicle: other
[2] = endpoint: mean survival time, dose: 150.0 mg/kg/injection, schedule: Q01DX001 (ip), vehicle: other
[3] = endpoint: mean survival time, dose: 300.0 mg/kg/injection, schedule: Q01DX001 (ip), vehicle: other
[4] = endpoint: mean survival time, dose: 100.0 mg/kg/injection, schedule: Q04DX003 (ip), vehicle: saline with Tween-80
[5] = endpoint: mean survival time, dose: 200.0 mg/kg/injection, schedule: Q04DX003 (ip), vehicle: saline with Tween-80
[6] = endpoint: mean survival time, dose: 400.0 mg/kg/injection, schedule: Q04DX003 (ip), vehicle: saline with Tween-80
[7] = endpoint: mean survival time, dose: 100.0 mg/kg/injection, schedule: Q01DX001 (ip), vehicle: saline with Tween-80
[8] = endpoint: mean survival time, dose: 400.0 mg/kg/injection, schedule: Q01DX001 (ip), vehicle: saline with Tween-80
[9] = endpoint: mean survival time, dose: 100.0 mg/kg/injection, schedule: Q01DX009 (ip), vehicle: saline with Tween-80
[10] = endpoint: mean survival time, dose: 400.0 mg/kg/injection, schedule: Q01DX009 (ip), vehicle: saline with Tween-80
[11] = endpoint: mean survival time, dose: 200.0 mg/kg/injection, schedule: Q01DX009 (ip), vehicle: saline with Tween-80

Measured: T/C

CC(=O)C1=C(O)C(CSCc2ccccc2)N(C)C1=O (centres undefined)
inactive: [1] 95 % of control | [2] 92 % of control | [3] 91 % of control

COC(=O)c1ccc(SSc2ccc(C(=O)OC)cc2[N+](=O)[O-])c([N+](=O)[O-])c1
inactive: [4] 103 % of control | [5] 96 % of control | [6] 96 % of control

Cc1cscc(C)c1=S
inactive: endpoint: mean survival time, dose: 100.0 mg/kg/injection, schedule: Q04DX003 (ip), vehicle: saline sonified 98 % of control | endpoint: mean survival time, dose: 200.0 mg/kg/injection, schedule: Q04DX003 (ip), vehicle: saline sonified 98 % of control | endpoint: mean survival time, dose: 400.0 mg/kg/injection, schedule: Q04DX003 (ip), vehicle: saline sonified 100 % of control

COC1OC(CO)C(OC(=O)Nc2ccccc2)C(OC(=O)Nc2ccccc2)C1O (centres undefined)
inactive: [7] 87 % of control | [8] 95 % of control

CCOC(=O)C(C)(C)Br
inactive: endpoint: mean survival time, dose: 100.0 mg/kg/injection, schedule: Q01DX009 (ip), vehicle: saline sonified 105 % of control | [9] 102 % of control | [4] 95 % of control and 98 % of control and 103 % of control | endpoint: mean survival time, dose: 200.0 mg/kg/injection, schedule: Q01DX009 (ip), vehicle: saline sonified 100 % of control | [5] 95 % of control and 98 % of control and 100 % of control | endpoint: mean survival time, dose: 400.0 mg/kg/injection, schedule: Q01DX009 (ip), vehicle: saline sonified 106 % of control | [10] 90 % of control | [6] 96 % of control and 103 % of control and 106 % of control

O=C(CCl)Nc1cccc(Cl)c1
inactive: [9] 92 % of control | [4] 97 % of control | [11] 95 % of control | [5] 111 % of control | [6] 104 % of control

O=C(CBr)Nc1c2c(nc3ccccc13)CCCC2
inactive: endpoint: mean survival time, dose: 75.0 mg/kg/injection, schedule: Q01DX001 (ip), vehicle: saline with Tween-80 101 % of control | endpoint: mean survival time, dose: 150.0 mg/kg/injection, schedule: Q01DX001 (ip), vehicle: saline with Tween-80 104 % of control | endpoint: mean survival time, dose: 300.0 mg/kg/injection, schedule: Q01DX001 (ip), vehicle: saline with Tween-80 94 % of control

OCn1c2ccccc2c2ccccc21
inactive: [4] 89 % of control | [5] 87 % of control | [6] 87 % of control

O=P1(N(CCCl)CCCl)NCCCO1.[Cl][Sb]([Cl])[Cl] (centres undefined)
inactive: endpoint: mean survival time, dose: 31.25 mg/kg/injection, schedule: Q01DX001 (ip), vehicle: olive oil, sesame oil, peanut oil 109 % of control | endpoint: mean survival time, dose: 62.5 mg/kg/injection, schedule: Q01DX001 (ip), vehicle: olive oil, sesame oil, peanut oil 113 % of control | endpoint: mean survival time, dose: 125.0 mg/kg/injection, schedule: Q01DX001 (ip), vehicle: olive oil, sesame oil, peanut oil 109 % of control

ClC1=CCCCC1
inactive: endpoint: mean survival time, dose: 100.0 mg/kg/injection, schedule: Q04DX003 (ip), vehicle: acetone 102 % of control

Cc1c(C)c(C)c(CN2CCC(C)CC2)c(C)c1C
inactive: endpoint: mean survival time, dose: 25.0 mg/kg/injection, schedule: Q01DX009 (ip), vehicle: saline with Tween-80 90 % of control | endpoint: mean survival time, dose: 50.0 mg/kg/injection, schedule: Q01DX009 (ip), vehicle: saline with Tween-80 91 % of control | endpoint: mean survival time, dose: 100.0 mg/kg/injection, schedule: Q04DX002 (ip), vehicle: saline with Tween-80 98 % of control | [11] 90 % of control | endpoint: mean survival time, dose: 200.0 mg/kg/injection, schedule: Q04DX002 (ip), vehicle: saline with Tween-80 94 % of control | [10] 86 % of control | endpoint: mean survival time, dose: 400.0 mg/kg/injection, schedule: Q04DX002 (ip), vehicle: saline with Tween-80 94 % of control

CN(C)c1ccc(/C=C/C(=O)Cc2ccccc2)cc1
inactive: endpoint: mean survival time, dose: 100.0 mg/kg/injection, schedule: Q01DX001 (ip), vehicle: saline sonified 100 % of control

NCc1ccc(-c2nc3ncnc(N)c3[nH]2)cc1
inactive: endpoint: mean survival time, dose: 3.13 mg/kg/injection, schedule: Q01DX001 (ip), vehicle: saline with Tween-80 108 % of control | endpoint: mean survival time, dose: 6.25 mg/kg/injection, schedule: Q01DX001 (ip), vehicle: saline with Tween-80 102 % of control | endpoint: mean survival time, dose: 12.5 mg/kg/injection, schedule: Q01DX001 (ip), vehicle: saline with Tween-80 100 % of control and 110 % of control | endpoint: mean survival time, dose: 25.0 mg/kg/injection, schedule: Q01DX001 (ip), vehicle: saline with Tween-80 102 % of control | endpoint: mean survival time, dose: 50.0 mg/kg/injection, schedule: Q01DX001 (ip), vehicle: saline with Tween-80 109 % of control | [7] 106 % of control and 110 % of control

CSc1ncnc2c1c(C#N)cn2C1OC(CO)C(O)C1O (centres undefined)
inactive: endpoint: mean survival time, dose: 32.0 mg/kg/injection, schedule: Q01DX009 (ip), vehicle: saline 124 % of control | endpoint: mean survival time, dose: 53.0 mg/kg/injection, schedule: Q01DX009 (ip), vehicle: saline 87 % of control

O=CO.[Cu+2]
inactive: endpoint: mean survival time, dose: 5.0 mg/kg/injection, schedule: Q01DX001 (ip), vehicle: saline 90 % of control | endpoint: mean survival time, dose: 10.0 mg/kg/injection, schedule: Q01DX001 (ip), vehicle: saline 98 % of control

CNC(=O)Oc1cccc(NC(=O)OCc2ccccc2)c1
inactive: [4] 99 % of control | [5] 96 % of control | [6] 92 % of control

Oc1ccccc1/C=N/c1nc(-c2ccccc2)cs1
inactive: [7] 86 % of control | endpoint: mean survival time, dose: 200.0 mg/kg/injection, schedule: Q01DX001 (ip), vehicle: saline with Tween-80 107 % of control | [8] 93 % of control

CN(N=O)C(=O)N[C@@H](C=O)[C@@H](O)[C@H](O)[C@H](O)CO
inactive: endpoint: mean survival time, dose: 12.5 mg/kg/injection, schedule: Q01DX005 (ip), vehicle: other 104 % of control | endpoint: mean survival time, dose: 19.6 mg/kg/injection, schedule: Q01DX009 (ip), vehicle: other 104 % of control | endpoint: mean survival time, dose: 25.0 mg/kg/injection, schedule: Q01DX001 (ip), vehicle: other 102 % of control and 103 % of control | endpoint: mean survival time, dose: 25.0 mg/kg/injection, schedule: Q01DX005 (ip), vehicle: other 112 % of control | endpoint: mean survival time, dose: 25.0 mg/kg/injection, schedule: Q04DX003 (ip), vehicle: other 102 % of control | endpoint: mean survival time, dose: 29.3 mg/kg/injection, schedule: Q01DX009 (ip), vehicle: other 107 % of control | endpoint: mean survival time, dose: 32.0 mg/kg/injection, schedule: Q03HX008 (ip), vehicle: other 98 % of control | endpoint: mean survival time, dose: 32.0 mg/kg/injection, schedule: Q03HX016 (ip), vehicle: other 98 % of control | endpoint: mean survival time, dose: 37.5 mg/kg/injection, schedule: Q01DX001 (ip), vehicle: other 107 % of control | endpoint: mean survival time, dose: 44.0 mg/kg/injection, schedule: Q01DX009 (ip), vehicle: other 117 % of control | endpoint: mean survival time, dose: 50.0 mg/kg/injection, schedule: Q01DX001 (ip), vehicle: other 94 % of control and 105 % of control | endpoint: mean survival time, dose: 50.0 mg/kg/injection, schedule: Q01DX005 (ip), vehicle: other 117 % of control | endpoint: mean survival time, dose: 50.0 mg/kg/injection, schedule: Q04DX003 (ip), vehicle: other 106 % of control | endpoint: mean survival time, dose: 64.0 mg/kg/injection, schedule: Q03HX008 (ip), vehicle: other 96 % of control | endpoint: mean survival time, dose: 64.0 mg/kg/injection, schedule: Q03HX016 (ip), vehicle: other 95 % of control | [1] 98 % of control | endpoint: mean survival time, dose: 100.0 mg/kg/injection, schedule: Q01DX001 (ip), vehicle: other 113 % of control and 103 % of control | endpoint: mean survival time, dose: 100.0 mg/kg/injection, schedule: Q01DX005 (ip), vehicle: other 116 % of control | endpoint: mean survival time, dose: 100.0 mg/kg/injection, schedule: Q01DX009 (ip), vehicle: saline 111 % of control | endpoint: mean survival time, dose: 100.0 mg/kg/injection, schedule: Q04DX003 (ip), vehicle: other 109 % of control | endpoint: mean survival time, dose: 128.0 mg/kg/injection, schedule: Q03HX008 (ip), vehicle: other 102 % of control | endpoint: mean survival time, dose: 128.0 mg/kg/injection, schedule: Q03HX016 (ip), vehicle: other 108 % of control | [2] 104 % of control | endpoint: mean survival time, dose: 200.0 mg/kg/injection, schedule: Q01DX001 (ip), vehicle: other 118 % of control and 124 % of control and 106 % of control | endpoint: mean survival time, dose: 200.0 mg/kg/injection, schedule: Q01DX009 (ip), vehicle: saline 103 % of control | endpoint: mean survival time, dose: 200.0 mg/kg/injection, schedule: Q04DX003 (ip), vehicle: other 120 % of control | endpoint: mean survival time, dose: 250.0 mg/kg/injection, schedule: Q01DX001 (ip), vehicle: other 109 % of control | endpoint: mean survival time, dose: 256.0 mg/kg/injection, schedule: Q03HX008 (ip), vehicle: other 108 % of control | endpoint: mean survival time, dose: 256.0 mg/kg/injection, schedule: Q03HX016 (ip), vehicle: other 113 % of control | [3] 119 % of control and 110 % of control | endpoint: mean survival time, dose: 350.0 mg/kg/injection, schedule: Q01DX001 (ip), vehicle: other 113 % of control | endpoint: mean survival time, dose: 400.0 mg/kg/injection, schedule: Q01DX001 (ip), vehicle: other 117 % of control and 102 % of control | endpoint: median survival time, dose: 21.6 mg/kg/injection, schedule: Q01DX009 (ip), vehicle: saline 100 % of control | endpoint: median survival time, dose: 36.0 mg/kg/injection, schedule: Q01DX009 (ip), vehicle: saline 102 % of control | endpoint: median survival time, dose: 60.0 mg/kg/injection, schedule: Q01DX009 (ip), vehicle: saline 109 % of control | endpoint: median survival time, dose: 100.0 mg/kg/injection, schedule: Q01DX009 (ip), vehicle: saline 110 % of control
